The supplement of paper PMC8612539
Converted amounts (≈) assume the structure as drawn.

Tested on: Pasteurella multocida
Assay: minimum inhibitory concentration (MIC)
Method: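 Broth microdilution MIC (Sensititre BOPO7F bovine plate, CLSI methods) of 19 antimicrobials against field isolates of P. multocida, M. haemolytica, H. somni (deep nasopharyngeal swabs) and E. coli, Enterococcus spp. (rectal swabs) from weaned dairy heifers. Incubation 16-24 h at 35 C. MIC is the lowest concentration preventing visible growth. Values with <= or > lie at the tested range limits. Trimethoprim-sulfamethoxazole is given as the trimethoprim component of a 1:19 mixture.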

CNC(C)C1CCC(N)C(OC2C(N)CC(N)C(OC3OCC(C)(O)C(NC)C3O)C2O)O1 (stereo not given) [Gentamicin]
Conditions | minimum inhibitory concentration [mg/L]
isolate (source animal id): 10 | 4 (≈ 8.38 µM)
isolate (source animal id): 11 | 2 (≈ 4.19 µM)
isolate (source animal id): 12 | 4 (≈ 8.38 µM)
isolate (source animal id): 19 | 4 (≈ 8.38 µM)
isolate (source animal id): 23 | 4 (≈ 8.38 µM)
isolate (source animal id): 26 | 4 (≈ 8.38 µM)
isolate (source animal id): 98 | 4 (≈ 8.38 µM)
isolate (source animal id): 104 | 2 (≈ 4.19 µM)
isolate (source animal id): 115 | 4 (≈ 8.38 µM)
isolate (source animal id): 117 | 4 (≈ 8.38 µM)
isolate (source animal id): 118 | 4 (≈ 8.38 µM)
isolate (source animal id): 121 | 4 (≈ 8.38 µM)
isolate (source animal id): 124 | 4 (≈ 8.38 µM)
isolate (source animal id): 125 | 4 (≈ 8.38 µM)
isolate (source animal id): 128 | 4 (≈ 8.38 µM)
isolate (source animal id): 131 | 16 (≈ 33.5 µM)
isolate (source animal id): 135 | 8 (≈ 16.8 µM)
isolate (source animal id): 136 | 4 (≈ 8.38 µM)
isolate (source animal id): 140 | 4 (≈ 8.38 µM)
isolate (source animal id): 144 | 4 (≈ 8.38 µM)
isolate (source animal id): 146 | 4 (≈ 8.38 µM)
isolate (source animal id): 150 | 4 (≈ 8.38 µM)
isolate (source animal id): 151 | 4 (≈ 8.38 µM)
isolate (source animal id): 153 | 4 (≈ 8.38 µM)
isolate (source animal id): 155 | 4 (≈ 8.38 µM)
isolate (source animal id): 157 | 4 (≈ 8.38 µM)
isolate (source animal id): 160 | 4 (≈ 8.38 µM)
isolate (source animal id): 164 | 4 (≈ 8.38 µM)
isolate (source animal id): 165 | 4 (≈ 8.38 µM)
isolate (source animal id): 167 | 4 (≈ 8.38 µM)
isolate (source animal id): 168 | 4 (≈ 8.38 µM)
isolate (source animal id): 169 | 4 (≈ 8.38 µM)
isolate (source animal id): 170 | 4 (≈ 8.38 µM)
isolate (source animal id): 171 | 4 (≈ 8.38 µM)
isolate (source animal id): 172 | 4 (≈ 8.38 µM)
isolate (source animal id): 173 | 4 (≈ 8.38 µM)
isolate (source animal id): 174 | 4 (≈ 8.38 µM)
isolate (source animal id): 175 | 4 (≈ 8.38 µM)
isolate (source animal id): 176 | 4 (≈ 8.38 µM)
isolate (source animal id): 177 | 4 (≈ 8.38 µM)
isolate (source animal id): 178 | 4 (≈ 8.38 µM)
isolate (source animal id): 179 | 4 (≈ 8.38 µM)
isolate (source animal id): 182 | 4 (≈ 8.38 µM)
isolate (source animal id): 192 | 4 (≈ 8.38 µM)
isolate (source animal id): 193 | 4 (≈ 8.38 µM)
isolate (source animal id): 195 | 4 (≈ 8.38 µM)
isolate (source animal id): 196 | 4 (≈ 8.38 µM)
isolate (source animal id): 197 | 4 (≈ 8.38 µM)
isolate (source animal id): 198 | 4 (≈ 8.38 µM)
isolate (source animal id): 199 | 4 (≈ 8.38 µM)
isolate (source animal id): 200 | 4 (≈ 8.38 µM)
isolate (source animal id): 201 | 4 (≈ 8.38 µM)
isolate (source animal id): 203 | 4 (≈ 8.38 µM)
isolate (source animal id): 204 | 4 (≈ 8.38 µM)
isolate (source animal id): 205 | 4 (≈ 8.38 µM)
isolate (source animal id): 206 | 4 (≈ 8.38 µM)
isolate (source animal id): 207 | 4 (≈ 8.38 µM)
isolate (source animal id): 208 | 4 (≈ 8.38 µM)
isolate (source animal id): 209 | 4 (≈ 8.38 µM)
isolate (source animal id): 210 | 4 (≈ 8.38 µM)
isolate (source animal id): 213 | 4 (≈ 8.38 µM)
isolate (source animal id): 216 | 4 (≈ 8.38 µM)
isolate (source animal id): 223 | 4 (≈ 8.38 µM)
isolate (source animal id): 227 | 2 (≈ 4.19 µM)
isolate (source animal id): 229 | 2 (≈ 4.19 µM)
isolate (source animal id): 233 | 4 (≈ 8.38 µM)
isolate (source animal id): 234 | 4 (≈ 8.38 µM)
isolate (source animal id): 237 | 4 (≈ 8.38 µM)
isolate (source animal id): 241 | 4 (≈ 8.38 µM)
isolate (source animal id): 245 | 4 (≈ 8.38 µM)
isolate (source animal id): 247 | 4 (≈ 8.38 µM)
isolate (source animal id): 250 | 2 (≈ 4.19 µM)
isolate (source animal id): 254 | 4 (≈ 8.38 µM)
isolate (source animal id): 255 | 4 (≈ 8.38 µM)
isolate (source animal id): 258 | 4 (≈ 8.38 µM)
isolate (source animal id): 261 | 2 (≈ 4.19 µM)
isolate (source animal id): 262 | 4 (≈ 8.38 µM)
isolate (source animal id): 269 | 4 (≈ 8.38 µM)
isolate (source animal id): 270 | 4 (≈ 8.38 µM)
isolate (source animal id): 274 | 4 (≈ 8.38 µM)
isolate (source animal id): 275 | 4 (≈ 8.38 µM)
isolate (source animal id): 276 | 4 (≈ 8.38 µM)
isolate (source animal id): 277 | 4 (≈ 8.38 µM)
isolate (source animal id): 278 | 4 (≈ 8.38 µM)
isolate (source animal id): 279 | 4 (≈ 8.38 µM)
isolate (source animal id): 280 | 4 (≈ 8.38 µM)
isolate (source animal id): 284 | 8 (≈ 16.8 µM)
isolate (source animal id): 285 | 2 (≈ 4.19 µM)
isolate (source animal id): 287 | 2 (≈ 4.19 µM)
isolate (source animal id): 290 | 4 (≈ 8.38 µM)
isolate (source animal id): 294 | 4 (≈ 8.38 µM)
isolate (source animal id): 295 | 2 (≈ 4.19 µM)
isolate (source animal id): 296 | 2 (≈ 4.19 µM)
isolate (source animal id): 307 | 4 (≈ 8.38 µM)
isolate (source animal id): 310 | 4 (≈ 8.38 µM)
isolate (source animal id): 311 | 4 (≈ 8.38 µM)
isolate (source animal id): 312 | ≤ 1
isolate (source animal id): 313 | 2 (≈ 4.19 µM)
isolate (source animal id): 315 | 4 (≈ 8.38 µM)
isolate (source animal id): 316 | 4 (≈ 8.38 µM)

NC[C@@H]1O[C@H](O[C@H]2[C@@H](O)[C@H](O[C@@H]3[C@@H](O)[C@H](N)C[C@H](N)[C@H]3O[C@H]3O[C@H](CN)[C@@H](O)[C@H](O)[C@H]3N)O[C@@H]2CO)[C@H](N)[C@@H](O)[C@@H]1O [Neomycin]
Conditions | minimum inhibitory concentration [mg/L]
isolate (source animal id): 10 | > 32
isolate (source animal id): 11 | > 32
isolate (source animal id): 12 | > 32
isolate (source animal id): 19 | > 32
isolate (source animal id): 23 | > 32
isolate (source animal id): 26 | > 32
isolate (source animal id): 98 | > 32
isolate (source animal id): 104 | > 32
isolate (source animal id): 115 | 32 (≈ 52.1 µM)
isolate (source animal id): 117 | > 32
isolate (source animal id): 118 | > 32
isolate (source animal id): 121 | > 32
isolate (source animal id): 124 | > 32
isolate (source animal id): 125 | > 32
isolate (source animal id): 128 | > 32
isolate (source animal id): 131 | > 32
isolate (source animal id): 135 | > 32
isolate (source animal id): 136 | > 32
isolate (source animal id): 140 | > 32
isolate (source animal id): 144 | > 32
isolate (source animal id): 146 | > 32
isolate (source animal id): 150 | > 32
isolate (source animal id): 151 | 32 (≈ 52.1 µM)
isolate (source animal id): 153 | > 32
isolate (source animal id): 155 | > 32
isolate (source animal id): 157 | > 32
isolate (source animal id): 160 | 32 (≈ 52.1 µM)
isolate (source animal id): 164 | 32 (≈ 52.1 µM)
isolate (source animal id): 165 | 32 (≈ 52.1 µM)
isolate (source animal id): 167 | > 32
isolate (source animal id): 168 | > 32
isolate (source animal id): 169 | > 32
isolate (source animal id): 170 | > 32
isolate (source animal id): 171 | > 32
isolate (source animal id): 172 | > 32
isolate (source animal id): 173 | > 32
isolate (source animal id): 174 | > 32
isolate (source animal id): 175 | > 32
isolate (source animal id): 176 | > 32
isolate (source animal id): 177 | 16 (≈ 26 µM)
isolate (source animal id): 178 | > 32
isolate (source animal id): 179 | > 32
isolate (source animal id): 182 | > 32
isolate (source animal id): 192 | > 32
isolate (source animal id): 193 | 16 (≈ 26 µM)
isolate (source animal id): 195 | 32 (≈ 52.1 µM)
isolate (source animal id): 196 | 8 (≈ 13 µM)
isolate (source animal id): 197 | > 32
isolate (source animal id): 198 | > 32
isolate (source animal id): 199 | > 32
isolate (source animal id): 200 | > 32
isolate (source animal id): 201 | > 32
isolate (source animal id): 203 | 32 (≈ 52.1 µM)
isolate (source animal id): 204 | > 32
isolate (source animal id): 205 | > 32
isolate (source animal id): 206 | > 32
isolate (source animal id): 207 | > 32
isolate (source animal id): 208 | > 32
isolate (source animal id): 209 | 32 (≈ 52.1 µM)
isolate (source animal id): 210 | > 32
isolate (source animal id): 213 | > 32
isolate (source animal id): 216 | > 32
isolate (source animal id): 223 | > 32
isolate (source animal id): 227 | > 32
isolate (source animal id): 229 | > 32
isolate (source animal id): 233 | > 32
isolate (source animal id): 234 | > 32
isolate (source animal id): 237 | > 32
isolate (source animal id): 241 | > 32
isolate (source animal id): 245 | > 32
isolate (source animal id): 247 | > 32
isolate (source animal id): 250 | > 32
isolate (source animal id): 254 | > 32
isolate (source animal id): 255 | > 32
isolate (source animal id): 258 | > 32
isolate (source animal id): 261 | > 32
isolate (source animal id): 262 | > 32
isolate (source animal id): 269 | > 32
isolate (source animal id): 270 | > 32
isolate (source animal id): 274 | > 32
isolate (source animal id): 275 | > 32
isolate (source animal id): 276 | > 32
isolate (source animal id): 277 | > 32
isolate (source animal id): 278 | > 32
isolate (source animal id): 279 | > 32
isolate (source animal id): 280 | > 32
isolate (source animal id): 284 | > 32
isolate (source animal id): 285 | > 32
isolate (source animal id): 287 | > 32
isolate (source animal id): 290 | > 32
isolate (source animal id): 294 | > 32
isolate (source animal id): 295 | > 32
isolate (source animal id): 296 | > 32
isolate (source animal id): 307 | > 32
isolate (source animal id): 310 | > 32
isolate (source animal id): 311 | > 32
isolate (source animal id): 312 | > 32
isolate (source animal id): 313 | > 32
isolate (source animal id): 315 | > 32
isolate (source animal id): 316 | > 32
